{
  "source": "patent US5478825A",
  "about": "“5-(substituted amino)-1,2,4-triazolo (1,5-A) pyrimidine derivatives” (Egis Gyogyszergyar, priority 1991, dated 1995)",
  "key": {"gastric acid secretion": {"tested_on": "gastric acid secretion", "test": "Gastric acid secretion test", "type": "in vivo, rat", "protocol": "8. […] Rats of both sexes (Wistar breed, weighing 180-240 g) were fastened for 48 hours. On the day of the test the pylorus of the animals was bound under ether narcosis. The test compounds were administered orally 3 hours before the operation. 4 hours after the operation the animals were anaesthetized and the stomach was removed, the content thereof was centrifuged and the amount of the free acid was determined by titration, in the presence of Topfer reagent. The inhibition in relation to the control is calculated in percentage."}, "motility of mice": {"tested_on": "motility of mice", "test": "Motility inhibiting activity", "type": "in vivo", "protocol": "5. Motility inhibiting activity\nThe tests were performed according to the method of Borsy et al. [Arch. Int. Pharmacodyn. 124, 1-2 (1960)]. Groups consisting of 3 mice each were treated orally with different doses of the compounds to be tested. Then the test animals were placed in a Dews equipment. In this equipment the number of interruptions of infrared beam within 30 minutes was counted. The inhibition is expressed as the percentage of the value obtained for the control animals."}, "hexobarbital narcosis": {"tested_on": "hexobarbital narcosis", "test": "Narcosis potentiating activity (hexobarbital)", "type": "in vivo, mice", "conditions": "for Narcosis potentiating effect: 100 mg/kg, orally, frequency of positive reaction, hexobarbital 40 mg/kg i.v.", "protocol": "6. Narcosis potentiating activity\nGroups consisting of 6 mice each were orally treated with the compound to be examined. After one hour, hexobarbital [5-(1-cyclohexenyl)-1,5-dimethylbarbituric acid] was injected intravenously at a dosage of 40 mg/kg. The control group was treated only with hexobarbital to provoke sleep. The duration of sleep was recorded. If the duration of sleep of an animal exceeded that of the mean value of the control group by a factor of 2.5, it was considered as a positive reaction. The frequency of the positive reaction is expressed as the percentage of the value obtained for the control animals."}, "pentetrazole spasm": {"tested_on": "pentetrazole spasm", "test": "Spasmolytic activity on mice (pentetrazole spasm)", "type": "in vivo", "conditions": "orally; for Inhibition of pentetrazole spasm: 100 mg/kg, pentetrazole 125 mg/kg i.p.", "protocol": "7. Spasmolytic activity on mice\nThe tests were carried out according to the modified method of Benzinger and Hane [Arch. Int. Pharmacodyn. 167, 245-249 (1959)]. Mice of both sexes (NMRI breed, body weight 20-25 g) were treated orally with the compounds to be tested. One hour after the administration pentetrazole (6,7,8,9-tetrahydro-5H-tetrazoloazepine) was given intraperitoneally in a dosis of 125 mg/kg. The tonic-extensoric spasms on the hind limbs were registered. As reference compound 3,5,5-trimethyl-oxazolidine-2,4-dione (trimetadione) was used."}},
  "data": [
    {"smiles": "COc1cc(C(=S)N2CCOCC2)cc(OC)c1OC", "note": "[Trithiozine, reference compound]", "values": [
      {"measurement": "Inhibition (gastric acid secretion)", "setting": "gastric acid secretion; 400 mg/kg p.o.", "result": 63, "unit": "%"}
    ]},
    {"smiles": "CN/C(=N/CCSCc1nc[nH]c1C)NC#N", "note": "[Cimetidine, reference compound]", "values": [
      {"measurement": "Inhibition (gastric acid secretion)", "setting": "gastric acid secretion; 200 mg/kg p.o.", "result": 91, "unit": "%"}
    ]},
    {"smiles": "CCCC(C)(COC(N)=O)COC(N)=O", "note": "[Meprobamate, reference compound]", "values": [
      {"measurement": "ED50", "setting": "motility of mice; Mus musculus, po, read-out: ED50 (motility inhibition)", "result": 232, "unit": "mg/kg"},
      {"measurement": "motility inhibition (in words)", "setting": "motility of mice; dose of 100 mg/kg", "result": "inactive"},
      {"measurement": "ED50", "setting": "hexobarbital narcosis; Mus musculus, po, read-out: ED50 (narcosis potentiating effect)", "result": 260, "unit": "mg/kg"},
      {"measurement": "narcosis potentiating effect (in words)", "setting": "hexobarbital narcosis; dose of 100 mg/kg", "result": "inactive"}
    ]},
    {"smiles": "OCCN(CCO)c1c2c(nc3nc(N4CCOCC4)nn13)CCC2", "note": "[Example 11, 5-[N-bis(2-Hydroxyethyl)]amino-2-morpholino-6,7-dihydro-8H-cyclopenta[d]-1,2,4-triazolo[1,5-a]pyrimidine]", "values": [
      {"measurement": "Narcosis potentiating effect", "setting": "hexobarbital narcosis", "result": 67, "unit": "%"}
    ]},
    {"smiles": "Cc1cc(N(CCO)Cc2ccccc2)n2nc(N3CCOCC3)nc2n1", "note": "[Example 24, 5-[N-Benzyl-N-(2-hydroxyethyl)]amino-7-methyl-2-morpholino-1,2,4-triazolo[1,5-a]pyrimidine]", "values": [
      {"measurement": "Narcosis potentiating effect", "setting": "hexobarbital narcosis", "result": 67, "unit": "%"}
    ]},
    {"smiles": "CN1C(=O)OC(C)(C)C1=O", "note": "[Trimetadione, 3,5,5-trimethyl-oxazolidine-2,4-dione, reference compound]", "values": [
      {"measurement": "ED50", "setting": "pentetrazole spasm; Mus musculus, po, read-out: ED50 (inhibition of pentetrazole spasm)", "result": 400, "unit": "mg/kg"}
    ]},
    {"smiles": "C1Cc2nc3nc(N4CCOCC4)nn3c(N3CCOCC3)c2C1", "note": "[Example 15, 2,5-Dimorpholino-6,7-dihydro-8H-cyclopenta[d]-1,2,4-triazolo[1,5-a]pyrimidine]", "values": [
      {"measurement": "Inhibition of pentetrazole spasm", "setting": "pentetrazole spasm", "result": -50, "unit": "%"},
      {"measurement": "Change in motility vs control", "setting": "motility of mice; 100 mg/kg, orally", "result": -65, "unit": "%"}
    ]},
    {"smiles": "CSc1nc2nc3c(c(NCCN4CCOCC4)n2n1)CCCC3", "note": "[Example 18, 2-(Methylthio)-5-[N-(2-morpholinoethyl)]amino-6,7,8,9-tetrahydro-1,2,4-triazolo[5,1-b]quinazoline]", "values": [
      {"measurement": "Inhibition of pentetrazole spasm", "setting": "pentetrazole spasm", "result": -56, "unit": "%"}
    ]},
    {"smiles": "CCN(CC)c1c2c(nc3nc(SC)nn13)CCC2", "note": "[Example 1, 5-(Diethylamino)-2-(methylthio)-6,7-dihydro-8H-cyclopenta[d]-1,2,4-triazolo[1,5-a]pyrimidine]", "values": [
      {"measurement": "Inhibition (gastric acid secretion)", "setting": "gastric acid secretion; 200 mg/kg p.o.", "result": 75, "unit": "%"}
    ]}
  ]
}
